Data from patent US10766888B1, “HMOX1 inducers” (Mitobridge Inc., priority 2019, dated 2020).
≈ marks a conversion by molar mass, not a printed value.

What was measured:
[1] = test system: Human Heme Oxygenase-1 (HMOX-1); experiment: ELISA assay to measure human heme oxygenase-1 (HMOX-1) in HepG2 lysate; assay type: cell-based; settings: human HMOX1 protein level in HepG2 lysate; * = average of 2 or more EC50 determinations; NA = Not Active; read-out: EC50
Procedure: Example 143. ELISA Assay to Measure Human Heme Oxygenase-1 (HMOX-1) in HepG2 lysate
Reagents and Technical Notes:
ELISA capture antibody, standard HO-1, detection antibody and streptavidin HRP were supplied in the DuoSet IC Human total HO-1 ELISA from R&D systems (DYC3776-2). The substrate cocktail was KPL LumiGLO reserve Chemiluminescent Substrate (54-71-00). PBS was Corning Cellgro Cell Culture (21-040-CV). 10×PBS+0.05% tween20 (PBST) was from KPL.
All incubations of the plate were at room temperature (20° C.) in a closed drawer.
The ELISA plate was processed manually. All loadings were with a multichannel pipet. Plates were emptied by shaking into the sink and tapping onto paper towels to remove any remaining reagent. Plate washing was accomplished by loading all wells with PBS+0.05% tween20 (PBST) using a squirt bottle, shaking the PBST out and tapping the plate onto paper towels.
Preparation of the ELISA Plate:
• 1. anti-HO-1 capture antibody was 1440 μg/ml after reconstitution in PBS. This antibody was diluted to 8 μg/ml in PBS and 50 μl per well was added to a 384 well greiner “lumitrac 200” plate. Incubated overnight. • 2. The plate was emptied and 100 μl PBS+1% BSA added to all wells. Incubated 90 minutes at room temperature. Preparation of HepG2 Lysate: • 1. Cells were cultured in a 96-well tissue culture plate washed with PBS and then the plate frozen at −70° C. overnight. Plates were allowed to warm to ice temperature in an ice bucket. 20 μl of PBS, 0.5% Triton X100, 1 mM EDTA with 1×HALT™ protease inhibitors was added to each well and the plates incubated on ice for 1 hour. • 2. The lysates were frozen at −20° C. overnight. Measurement of HMOX1 (“HO-1”) • 1. In a polypropylene 384 well plate, human HO-1 (after reconstitution in PBS+0.5% Triton+1 mM EDTA) was serially diluted from 20 ng/ml 2-fold in PBS+0.5% triton-X100, 1 mM EDTA to make a 12-point standard curve including a zero point. • 2. In a polypropylene 96 well plate, HepG2 lysate was diluted 1 to 20 in Diluent #4 from DUOSET kit in which the assay standard is also diluted. • 3. The PBS+1% BSA was emptied from the ELISA plate and 30 μl of all samples and standards were added (duplicates recommended). The plate was incubated 90 minutes. • 4. Emptied plate and washed 4 times with PBST. • 5. Diluted HO-1 detection antibody to 200 ng/ml in PBS+1% BSA and added 30 μl to all wells. Incubated 90 minutes. • 6. Emptied plate and washed 4 times with PBST. • 7. Added 30 μl streptavidin HRP at 1/200 in PBS+1% BSA (stock streptavidin concentration not specified) to all wells. Incubated 30 minutes. • 8. Emptied plate and washed 4 times with PBST. • 9. Diluted Lumiglo reserve reagent two parts buffer to one part lumiglo substrate. Added 30 μl to all wells. Incubated 5 minutes. • 10. Measured chemiluminescence on spectramax M5 using 150 ms integration.
Table 1 below lists EC50 and fold changes of human HMOX1 protein levels relative to DMSO control upon treatment with representative compounds.

Kinetic solubility = assay type: physicochemical; settings: Dulbecco's phosphate buffer saline (DPBS), aqueous buffer, kinetic from dmso stock, DPBS pH 7.4, 25° C., 200 μM test compound
Procedure: Example 144. Kinetic Solubility
10 μL of 10 mM DMSO stock solution were aliquotted to 490 μL of DMSO solution and separately 490 μL of Dulbecco's phosphate buffer saline, DPBS, pH 7.4 solution in 1.2 mL 96-well plates in duplicate. Final concentration was 200 μM of the test compound. Samples were incubated at 25° C. with shaking at 200 rpm for 16 h. Samples were centrifuged at 3500 rpm for 20 min at 25° C., and supernatant was submitted for HPLC analysis.
Kinetic solubility was measured using the following equation: […]

| EC50 [1] [µM] | solubility at 16 h (Kinetic solubility) [µM] | Compound |
| --- | --- | --- |
| 0.95 | 2.1 (≈ 0.944 µg/mL) | Cn1c(Nc2nc3ccc(C(F)(F)F)cc3o2)nc2cc(C(=O)NCC(O)CO)ccc21 (centres unmarked) [Example 39, N-(2,3-dihydroxypropyl)-1-methyl-2-((6-(trifluoromethyl)benzo[d]oxazol-2-yl)amino)-1H-benzo[d]imidazole-5-carboxamide] |
| 0.69 | 0.5 (≈ 0.252 µg/mL) | CN(C)CC(=O)NCCNC(=O)c1ccc2c(c1)nc(Nc1nc3ccc(C(F)(F)F)cc3o1)n2C [Example 40, N-(2-(2-(dimethylamino)acetamido)ethyl)-1-methyl-2-((6-(trifluoromethyl)benzo[d]oxazol-2-yl)amino)-1H-benzo[d]imidazole-5-carboxamide] |
| 4 | 12.4 (≈ 5.73 µg/mL) | O=C(O)c1ccc2c(c1)nc(Nc1nc3ccc(OC(F)(F)F)cc3o1)n2C1CCOCC1 [Example 79, 1-(tetrahydro-2H-pyran-4-yl)-2-((6-(trifluoromethoxy)benzo[d]oxazol-2-yl)amino)-1H-benzo[d]imidazole-5-carboxylic acid] |
| 0.74 | < 2 | Cn1c(Nc2nc3cc(F)c(C(F)(F)F)cc3o2)nc2cc(C(=O)NOCCO)ccc21 [Example 130, 2-((5-fluoro-6-(trifluoromethyl)benzo[d]oxazol-2-yl)amino)-N-(2-hydroxyethoxy)-1-methyl-1H-benzo[d]imidazole-5-carboxamide] |
| 1.4 | < 5 | Cn1c(Nc2nc3ccc(Cl)cc3o2)nc2cc(C(=O)NCCO)ccc21 [Example 97, 2-((6-chlorobenzo[d]oxazol-2-yl)amino)-N-(2-hydroxyethyl)-1-methyl-1H-benzo[d]imidazole-5-carboxamide] |
| 1.5 | 0.3 (≈ 0.131 µg/mL) | Cn1c(Nc2nc3cc(F)c(C(F)(F)F)cc3o2)nc2cc(C(=O)NCCO)ccc21 [Example 108, 2-((5-fluoro-6-(trifluoromethyl)benzo[d]oxazol-2-yl)amino)-N-(2-hydroxyethyl)-1-methyl-1H-benzo[d]imidazole-5-carboxamide] |
| 1.5 | 3.1 (≈ 1.31 µg/mL) | COCCONC(=O)c1ccc2c(c1)nc(Nc1nc3ccc(C(C)=O)cc3o1)n2C [Example 132, 2-((6-acetylbenzo[d]oxazol-2-yl)amino)-N-(2-methoxyethoxy)-1-methyl-1H-benzo[d]imidazole-5-carboxamide] |
| 1.3 | < 2 | CC(O)COCCNC(=O)c1ccc2c(c1)nc(Nc1nc3ccc(C(F)(F)F)cc3o1)n2C (centres unmarked) [Example 38, N-(2-(2-hydroxypropoxy)ethyl)-1-methyl-2-((6-(trifluoromethyl)benzo[d]oxazol-2-yl)amino)-1H-benzo[d]imidazole-5-carboxamide] |
| 3.6 | 9 (≈ 3.25 µg/mL) | Cn1c(Nc2nc3ccccc3o2)nc2cc(C(N)C(F)(F)F)ccc21 (centres unmarked) [Example 141, N-(5-(1-amino-2,2,2-trifluoroethyl)-1-methyl-1H-benzo[d]imidazol-2-yl)benzo[d]oxazol-2-amine] |
| 0.73 | 0.3 (≈ 0.14 µg/mL) | COCCNC(=O)c1cc2nc(Nc3nc4ccc(OC(F)(F)F)cc4o3)n(C)c2cc1F [Example 71, 6-fluoro-N-(2-methoxyethyl)-1-methyl-2-((6-(trifluoromethoxy)benzo[d]oxazol-2-yl)amino)-1H-benzo[d]imidazole-5-carboxamide] |
| 0.8 | < 2 | CN(C)CC(=O)NCCNC(=O)c1ccc2c(c1)nc(Nc1nc3ccc(OC(F)(F)F)cc3o1)n2C [Example 49, N-(2-(2-(dimethylamino)acetamido)ethyl)-1-methyl-2-((6-(trifluoromethoxy)benzo[d]oxazol-2-yl)amino)-1H-benzo[d]imidazole-5-carboxamide] |
| 2 | 6.5 (≈ 2.48 µg/mL) | CC(O)CONC(=O)c1ccc2c(c1)nc(Nc1nc3ccccc3o1)n2C (centres unmarked) [Example 120, 2-(benzo[d]oxazol-2-ylamino)-N-(2-hydroxypropoxy)-1-methyl-1H-benzo[d]imidazole-5-carboxamide] |
| 3.4 | 14.1 (≈ 6.03 µg/mL) | Cn1c(Nc2nc3ccc(OCCO)cc3o2)nc2cc(C(=O)NOCCO)ccc21 [Example 129, N-(2-hydroxyethoxy)-2-((6-(2-hydroxyethoxy)benzo[d]oxazol-2-yl)amino)-1-methyl-1H-benzo[d]imidazole-5-carboxamide] |
| 2.9 | 10.6 (≈ 5.09 µg/mL) | Cn1c(Nc2nc3ccc(N4CCOCC4)cc3o2)nc2cc(C(=O)NCCOCCO)ccc21 [Example 136, N-(2-(2-hydroxyethoxy)ethyl)-1-methyl-2-((6-morpholinobenzo[d]oxazol-2-yl)amino)-1H-benzo[d]imidazole-5-carboxamide] |
| 4.8 | 13.8 (≈ 6.59 µg/mL) | Cn1c(Nc2nc3ccc(C(F)(F)F)cc3o2)nc2cc(C(=O)NCCOCC(=O)O)ccc21 [Example 41, 2-(2-(1-methyl-2-((6-(trifluoromethyl)benzo[d]oxazol-2-yl)amino)-1H-benzo[d]imidazole-5-carboxamido)ethoxy)acetic acid] |
| 1.4 | 3.5 (≈ 1.33 µg/mL) | COc1ccc2nc(Nc3nc4cc(C(=O)NCCO)ccc4n3C)oc2c1 [Example 92, N-(2-hydroxyethyl)-2-((6-methoxybenzo[d]oxazol-2-yl)amino)-1-methyl-1H-benzo[d]imidazole-5-carboxamide] |
| 3.7 | 6.6 (≈ 3.01 µg/mL) | Cn1c(Nc2nc3ccc(OCCO)cc3o2)nc2cc(C(=O)NCCOCCO)ccc21 [Example 104, 2-((6-(2-hydroxyethoxy)benzo[d]oxazol-2-yl)amino)-N-(2-(2-hydroxyethoxy)ethyl)-1-methyl-1H-benzo[d]imidazole-5-carboxamide] |
| 1.4 | < 2 | Cn1c(Nc2nc3ccc(OC(F)(F)F)cc3o2)nc2cc(C(=O)NC3COC3)ccc21 [Example 51, 1-methyl-N-(oxetan-3-yl)-2-((6-(trifluoromethoxy)benzo[d]oxazol-2-yl)amino)-1H-benzo[d]imidazole-5-carboxamide] |
| 1.8 | 1.2 (≈ 0.556 µg/mL) | Cn1c(Nc2nc3cccc(C(F)(F)F)c3o2)nc2cc(C(=O)NCCOCCO)ccc21 [Example 117, N-(2-(2-hydroxyethoxy)ethyl)-1-methyl-2-((7-(trifluoromethyl)benzo[d]oxazol-2-yl)amino)-1H-benzo[d]imidazole-5-carboxamide] |
| 1.2 | 5.3 (≈ 2.38 µg/mL) | Cn1c(Nc2nc3ccc(OCC(F)(F)F)cc3o2)nc2cc(C(=O)NCCO)ccc21 [Example 100, N-(2-hydroxyethyl)-1-methyl-2-((6-(2,2,2-trifluoroethoxy)benzo[d]oxazol-2-yl)amino)-1H-benzo[d]imidazole-5-carboxamide] |
| 1.1 | 2.7 (≈ 1.12 µg/mL) | Cn1c(Nc2nc3ccccc3o2)nc2cc(C(=O)NCCOCCO)c(F)cc21 [Example 72, 2-(benzo[d]oxazol-2-ylamino)-6-fluoro-N-(2-(2-hydroxyethoxy)ethyl)-1-methyl-1H-benzo[d]imidazole-5-carboxamide] |
| 1.3 | 0.8 (≈ 0.345 µg/mL) | COCCNC(=O)c1ccc2c(c1)nc(Nc1nc3ccc(OC(F)F)cc3o1)n2C [Example 63, 2-((6-(difluoromethoxy)benzo[d]oxazol-2-yl)amino)-N-(2-methoxyethyl)-1-methyl-1H-benzo[d]imidazole-5-carboxamide] |
